Data taken from patent US12029725B2 (priority 2019, dated 2024).
Entries after “also recorded” stand apart in the source; their conditions may differ. Where two headings read alike, the source gives them in different places.

What was measured:
[1] = test system: subjects with moderate to severe osteoarthritis of the knee; conditions: for Procedure-associated pain (post-procedural pain and injection site pain), patients reporting: RTX patients; for Procedure-associated pain reported as mild / Procedure-associated pain reported as moderate: RTX treated patients
[2] = Pharmacokinetics of RTX after intra-articular injection in the Phase 1b study; format: in vivo, human; conditions: for Number of RTX subjects with quantifiable PK / Number of subjects with BQL of RTX: 6 subjects with PK measured; for Cmax / AUC(0-t): human, in vivo, other: intra-articular injection
[3] = test system: pain due to moderate to severe osteoarthritis of the knee; assay: Phase 1b double-blind study of intra-articular resiniferatoxin versus placebo: efficacy (WOMAC and NPRS pain scores); format: in vivo, human; conditions: for Patient reported WOMAC A1 and NPRS pain scores: all dose levels
Procedure: The study, described as “Phase 1b double-blind study assesses safety and preliminary efficacy of intra-articular administration of resiniferatoxin versus placebo for the treatment of pain due to moderate to severe osteoarthritis of the knee,” was performed.
Subjects with moderate to severe osteoarthritis diagnosed based on ACR diagnostic criteria and X-ray imaging were enrolled in a phase 1b double-blind study to assess the safety, tolerability and preliminary efficacy of intra-articular administration of resiniferatoxin or placebo for the treatment of moderate to severe pain due to osteoarthritis of the knee. Patients met the following criteria: (1) baseline pain score in the index knee (WOMAC pain subscale question A1) of ≥5 but ≤9 during four weeks prior to enrollment; (2) mean NPRS score of ≥5 but ≤9 during 8 of 10 days prior to enrollment; and (3) pain lasted for at least 6 months prior to enrollment.
As of August 2019, the enrollment of all planned dose level cohorts was completed. 40 patients have enrolled in these dose-escalation cohorts, 30 receiving RTX and 10 receiving placebo (multicenter, randomized, double-blind, placebo controls). In each cohort, six patients received intraarticular RTX and two received a saline control (placebo arm). 69% are female and 31% are male. The median age is 62 (range 44-83), and the baseline NPRS A1 score was mean 6.5 (S.D. 1.5).
The patients were treated with a one-time intraarticular dose of resiniferatoxin (RTX) or saline placebo at escalating dose level cohorts of 5 μg, 12.5 μg, 20 μg and 30 μg in 5 or 10 mL in dose escalation cohorts. For each 8-patient cohort, the first patient was considered a sentinel patient and received open-label drug. Upon confirmation of safety in the sentinel patient, the remaining 7 patients in the cohort were enrolled in a blinded fashion, 2 patients receiving placebo and 5 patients receiving RTX. After confirmation of safety at each dose level, the next higher dose level was opened for enrollment. Patients were followed for safety and efficacy over a 12-week period. Patients had the option to provide additional follow-up to 52 weeks. Efficacy was assessed using the patient reported WOMAC pain scores and NPRS pain scores. As per protocol, the treatment assignment could be unblinded at week 12.

[4] = 30 μg, Cohort 6, 30 μg/5 or 10 ml, subject with quantifiable PK

Compound: C=C(C)[C@]12C[C@@H](C)[C@@]34O[C@](Cc5ccccc5)(O[C@@H]1[C@@H]3C=C(COC(=O)Cc1ccc(O)c(OC)c1)C[C@]1(O)C(=O)C(C)=C[C@@H]41)O2 [RTX, resiniferatoxin]
- DMC assessment ([1]; Cohort 1, 5 μg): No DLTs
- Notable AE's ([1]; Cohort 1, 5 μg): None
- DMC assessment ([1]; Cohort 2, 12.5 μg): No DLTs
- Notable AE's ([1]; Cohort 2, 12.5 μg): None
- DMC assessment ([1]; Cohort 3, 12.5 μg (in 10 ml)): No DLTs
- Notable AE's ([1]; Cohort 3, 12.5 μg (in 10 ml)): None
- DMC assessment ([1]; Cohort 4, 20 μg): No DLTs
- Notable AE's ([1]; Cohort 4, 20 μg): None
- DMC assessment ([1]; Cohort 5, 30 μg): No DLTs
- Notable AE's ([1]; Cohort 5, 30 μg): None
- TEAE Areflexia, Mild: frequency ([1]; RTX All Cohorts (N = 57)): (3.5%)
- TEAE Areflexia, Mild: number of subjects ([1]; RTX All Cohorts (N = 57)): 2
- TEAE Areflexia, Moderate: frequency ([1]; RTX All Cohorts (N = 57)): (3.5%)
- TEAE Areflexia, Moderate: number of subjects ([1]; RTX All Cohorts (N = 57)): 2
- TEAE Arthralgia, Mild: frequency ([1]; RTX All Cohorts (N = 57)): (7.0%)
- TEAE Arthralgia, Mild: number of subjects ([1]; RTX All Cohorts (N = 57)): 4
- TEAE Arthralgia, Moderate: frequency ([1]; RTX All Cohorts (N = 57)): (1.8%)
- TEAE Arthralgia, Moderate: number of subjects ([1]; RTX All Cohorts (N = 57)): 1
- TEAE EOG QTc prolonged, Mild: frequency ([1]; RTX All Cohorts (N = 57)): (5.3%)
- TEAE EOG QTc prolonged, Mild: number of subjects ([1]; RTX All Cohorts (N = 57)): 3
- TEAE Headache, Mild: frequency ([1]; RTX All Cohorts (N = 57)): (5.3%)
- TEAE Headache, Mild: number of subjects ([1]; RTX All Cohorts (N = 57)): 3
- TEAE Hypertension, Mild: frequency ([1]; RTX All Cohorts (N = 57)): (7.0%)
- TEAE Hypertension, Mild: number of subjects ([1]; RTX All Cohorts (N = 57)): 4
- TEAE Hypertension, Moderate: frequency ([1]; RTX All Cohorts (N = 57)): (7.0%)
- TEAE Hypertension, Moderate: number of subjects ([1]; RTX All Cohorts (N = 57)): 4
- TEAE Hypoesthesia, Mild: frequency ([1]; RTX All Cohorts (N = 57)): (8.8%)
- TEAE Hypoesthesia, Mild: number of subjects ([1]; RTX All Cohorts (N = 57)): 5
- TEAE Nausea, Mild: frequency ([1]; RTX All Cohorts (N = 57)): (31.6%)
- TEAE Nausea, Mild: number of subjects ([1]; RTX All Cohorts (N = 57)): 18
- TEAE Nausea, Moderate: frequency ([1]; RTX All Cohorts (N = 57)): (3.5%)
- TEAE Nausea, Moderate: number of subjects ([1]; RTX All Cohorts (N = 57)): 2
- TEAE Procedural pain, Mild: frequency ([1]; RTX All Cohorts (N = 57)): (64.9%)
- TEAE Procedural pain, Mild: number of subjects ([1]; RTX All Cohorts (N = 57)): 37
- TEAE Procedural pain, Moderate: frequency ([1]; RTX All Cohorts (N = 57)): (26.3%)
- TEAE Procedural pain, Moderate: number of subjects ([1]; RTX All Cohorts (N = 57)): 15
- TEAE Vomiting, Mild: frequency ([1]; RTX All Cohorts (N = 57)): (14.0%)
- TEAE Vomiting, Mild: number of subjects ([1]; RTX All Cohorts (N = 57)): 8
- TEAE Vomiting, Moderate: frequency ([1]; RTX All Cohorts (N = 57)): (3.5%)
- TEAE Vomiting, Moderate: number of subjects ([1]; RTX All Cohorts (N = 57)): 2
- Dose-limiting toxicities ([1]; all cohorts): No dose-limiting toxicities
- Maximum tolerated dose ([1]; all cohorts): not identified
- Relationship between adverse events and dose ([1]; all cohorts): no apparent relationship
- Procedure-associated pain (post-procedural pain and injection site pain), patients reporting ([1]; all cohorts): 91%
- Procedure-associated pain reported as mild ([1]; all cohorts): 65%
- Procedure-associated pain reported as moderate ([1]; all cohorts): 26%
- Dose-limiting toxicities ([1]; dose escalation cohorts (N=40)): No dose-limiting toxicities
- Maximum tolerated dose ([1]; dose escalation cohorts (N=40)): not identified
- Relationship between adverse events and dose ([1]; dose escalation cohorts (N=40)): no apparent relationship
- Procedure-associated pain (post-procedural pain and injection site pain), patients reporting ([1]; dose escalation cohorts (N=40)): 100%
- Procedure-associated pain reported as mild ([1]; dose escalation cohorts (N=40)): 55%
- Procedure-associated pain reported as moderate ([1]; dose escalation cohorts (N=40)): 45%
- Adverse events of interest ([1]; initial results, any dose group): nor adverse events of interest noted
- Dose limiting toxicities (DLTs) ([1]; initial results, any dose group, to date): No dose limiting toxicities
- Number of RTX subjects with quantifiable PK ([2]; Cohort 1, 5 μg/5 ml): 1
- Number of subjects with BQL of RTX ([2]; Cohort 1, 5 μg/5 ml): 5
- Number of RTX subjects with quantifiable PK ([2]; Cohort 4, 12.5 μg/5 ml): 0
- Number of subjects with BQL of RTX ([2]; Cohort 4, 12.5 μg/5 ml): 6
- Number of RTX subjects with quantifiable PK ([2]; Cohort 4a, 12.5 μg/10 ml): 1
- Number of subjects with BQL of RTX ([2]; Cohort 4a, 12.5 μg/10 ml): 5
- Number of RTX subjects with quantifiable PK ([2]; Cohort 5, 20 μg/5 ml): 2
- Number of subjects with BQL of RTX ([2]; Cohort 5, 20 μg/5 ml): 4
- Number of RTX subjects with quantifiable PK ([2]; Cohort 6, 30 μg/5 or 10 ml): 1
- Number of subjects with BQL of RTX ([2]; Cohort 6, 30 μg/5 or 10 ml): 5
- Detectability of RTX (pharmacokinetic data) ([2]; all PK cohorts, intra-articular injection): undetectable in most patients
- Cmax ([2]; 5 μg, Cohort 1, 5 μg/5 ml, subject with quantifiable PK): 0.121 ng/mL
- AUC(0-t) ([2]; 5 μg, Cohort 1, 5 μg/5 ml, subject with quantifiable PK, read-out: AUC (0-6 hr)): 0.509 ng·h/mL
- Cmax ([2]; 12.5 μg, Cohort 4a, 12.5 μg/10 ml, subject with quantifiable PK): 0.103 ng/mL
- AUC(0-t) ([2]; 12.5 μg, Cohort 4a, 12.5 μg/10 ml, subject with quantifiable PK, read-out: AUC (0-6 hr)): 0.146 ng·h/mL
- Cmax ([2]; 20 μg, Cohort 5, 20 μg/5 ml, first subject with quantifiable PK): 0.071 ng/mL
- AUC(0-t) [2, 4]: 0.0854 ng·h/mL
- Cmax [2, 4]: 0.0878 ng/mL
- Pain at walking (10 point WOMAC pain scale), mean pain score lower versus control ([3]; 5 μg RTX, Day 84): 4.7 points
- WOMAC A-C pain index, least squares mean difference versus placebo (MMRM) ([3]; 12.5 μg dose, 12 weeks, p=0.016, N=6): −14.20
- WOMAC A1 score, least squares mean difference versus placebo (MMRM) ([3]; 12.5 μg dose, 12 weeks, p=0.029, N=6): −2.70
- NPRS score, least squares mean difference versus placebo (MMRM) ([3]; 12.5 μg dose, 12 weeks, p=0.051, N=6): −2.29
- Weekly average NPRS pain score, mean change (standard deviation) from baseline to week 12 ([3]; Cohort 4, 12.5 μg/5 ml, FIG. 2): −5.30 (1.94)
- Weekly average WOMAC question A1, mean change (standard deviation) from baseline to week 12 ([3]; Cohort 4, 12.5 μg/5 ml, FIG. 3): −5.67 (1.51)
- Patient reported WOMAC A1 and NPRS pain scores ([3]; all cohorts incl. volume and dose expansion cohorts): reduction
- Improvements in patients of all dose groups ([3]; all dose groups, ongoing trial): rapid and sustainable improvements
- Patient reported WOMAC A1 and NPRS pain scores ([3]; dose escalation cohorts (N=40), available unblinded data): reduction
- Sustained clinical benefits / pain reduction sustained over time ([3]; lowest dose (5 μg), determined at 84 days): sustained clinical benefits; also recorded: sustained over time
- Onset of pain relief ([3]; lowest dose tested, single 5 μg RTX injection into the knee joint): day following injection; also recorded: the day following drug administration
- Patients reporting positive clinical benefits in pain reduction ([3]; patients treated with the active drug, to date): a majority
- Patients achieving >70% reduction in pain versus baseline, NPRS score ([3]; pooled RTX-treated patients): 41%
- Patients achieving >70% reduction in pain versus baseline, WOMAC A1 score ([3]; pooled RTX-treated patients): 54%
- Weekly average NPRS pain score, change from baseline to week 12, difference versus pooled placebo ([3]; week 12, range over dose level cohorts): −0.34 to −2.29
- WOMAC question A1 (pain on walking on flat surface), least squares mean difference in change from baseline relative to placebo ([3]; week 12, range over dose level cohorts, 9 placebo, 28 RTX): −0.38 to −2.70 points
